Experimental data taken from the supplement of paper PMC4862054.
Where “and” joins values, the source holds several entries; their conditions need not be identical. Identical values can stand only once.

How the values were obtained:
Settings in all cases: incubation time: 72 h
CAL-148 [1] = assay: normalised viability (% of control), CellTiter-Blue; higher = more viable cells (about 100 = DMSO control)
Method in brief: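 Vehicle (100) and a positive kill control (0) anchored the normalisation of each plate, and Z'-factor was used for quality control. Breast cancer cell lines in 20 µl suspension were incubated 72 h over compound in 5 µl medium in 384-well plates, followed by CellTiter-Blue at 560/590 nm. The value is normalised viability at a single listed concentration of the series.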

CAL-85-1 [2] = assay: normalised viability (% of control), CellTiter-Blue; higher = more viable cells (about 100 = DMSO control)
Method: (§1)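 DSRT, CellTiter-Blue viability, 72 h incubation. Signal is normalised to DMSO and benzethonium chloride controls. Value is the normalised response at dose 8.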

HDQ-P1 [3] = assay: as above
Method: as §1

CAL-51 [4] = assay: as above
Method: as §1

CAL-148 [5] = assay: as above; remark: listed apart in the source
Method: as §1

DU-4475 [6] = assay: as above
Method: as §1

MDA-MB-453 [7] = assay: as above
Method: as §1

HDQ-P1 [8] = assay: as above; remark: listed apart in the source
Method: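 DSRT, CellTiter-Blue viability, 72 h incubation. Signal is normalised to DMSO and benzethonium chloride controls. Value is the normalised response at dose 9.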

HCC1937 = assay: drug sensitivity score (DSS), CellTox Green (DSS (AUC-based score)); higher = stronger drug effect (viability inhibition or cytotoxicity); extreme values may be limits of the assay
Method in brief: (§2)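 Breast cancer cell lines, seeded as 20 µl suspension, were incubated 72 h with compound in 384-well plates at 5 concentrations in 10-fold steps over a 10,000-fold range set for each compound. Fluorescence from CellTox Green was read at 485/520 nm before CellTiter-Glo luminescence, which was read after 10 min at room temperature. Every plate was normalised to 0.1 % DMSO and a positive kill control, and the drug sensitivity score was taken from the area under the fitted dose-response curve.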

CAL-120 = assay: as above
Method in brief: as §2

BT-474 = assay: as above
Method in brief: as §2

MDA-MB-436 = assay: as above
Method in brief: as §2

CAL-85-1 [9] = assay: as above
Method in brief: as §2

HDQ-P1 [10] = assay: as above
Method in brief: as §2

CAL-51 [11] = assay: as above
Method in brief: as §2

CAL-148 [12] = assay: as above
Method in brief: as §2

MCF-10A = assay: as above
Method in brief: as §2

HCC1599 = assay: as above
Method in brief: as §2

DU-4475 [13] = assay: as above
Method in brief: as §2

BT-549 = assay: as above
Method in brief: as §2

MDA-MB-453 [14] = assay: as above
Method in brief: as §2

MDA-MB-231 = assay: as above
Method in brief: as §2

HCC1143 = assay: as above
Method in brief: as §2

MFM-223 = assay: as above
Method in brief: as §2

Hs578T = assay: as above
Method in brief: as §2

MDA-MB-468 = assay: as above
Method in brief: as §2

SMILES | normalised viability (CAL-148 [1]; 3 nM) | normalised viability (CAL-148 [1]; 30 nM) [%] | normalised viability (CAL-85-1 [2]; 300 nM) | normalised viability (CAL-85-1 [2]; 3000 nM) [%] | normalised viability (HDQ-P1 [3]; 300 nM) | normalised viability (HDQ-P1 [3]; 3000 nM) [%] | normalised viability (CAL-51 [4]; 300 nM) | normalised viability (CAL-51 [4]; 3000 nM) [%] | normalised viability (CAL-148 [5]; 300 nM) | normalised viability (CAL-148 [5]; 3000 nM) [%] | normalised viability (DU-4475 [6]; 300 nM) | normalised viability (DU-4475 [6]; 3000 nM) [%] | normalised viability (MDA-MB-453 [7]; 300 nM) | normalised viability (MDA-MB-453 [7]; 3000 nM) [%] | normalised viability (HDQ-P1 [8]; 1000 nM) | normalised viability (HDQ-P1 [8]; 10000 nM) [%] | drug sensitivity score (HCC1937) | drug sensitivity score (CAL-120) | drug sensitivity score (BT-474) | drug sensitivity score (MDA-MB-436) | drug sensitivity score (CAL-85-1 [9]) | drug sensitivity score (HDQ-P1 [10]) | drug sensitivity score (CAL-51 [11]) | drug sensitivity score (CAL-148 [12]) | drug sensitivity score (MCF-10A) | drug sensitivity score (HCC1599) | drug sensitivity score (DU-4475 [13]) | drug sensitivity score (BT-549) | drug sensitivity score (MDA-MB-453 [14]) | drug sensitivity score (MDA-MB-231) | drug sensitivity score (HCC1143) | drug sensitivity score (MFM-223) | drug sensitivity score (Hs578T) | drug sensitivity score (MDA-MB-468)
CC[C@]1(O)C[C@H]2CN(CCc3c([nH]c4ccccc34)[C@@](C(=O)OC)(c3cc4c(cc3OC)N(C=O)[C@H]3[C@@](O)(C(=O)OC)[C@H](OC(C)=O)[C@]5(CC)C=CCN6CC[C@]43[C@@H]65)C2)C1 [Vincristine] | 88.5% | 23.2 | 40.6% | 38.1 | 36.6% | 38.9 | 17.2% | 10.4 | 20.4% | 26.8 | 14.8% | 6.84 | 36% | 30.5 | 41.5% | 37.9 | 0 | 1.68 | 6.14 | 0 | 14.4 | 0 | 14.1 | 0 | 14.2 | 2.79 | 0 | 9.25 | 0 | 15.7 | 0 | 12.5 | 8.32 | 22.1
COc1ccc(-c2ccc3c(N4CCOC[C@@H]4C)nc(N4CCOC[C@@H]4C)nc3n2)cc1CO [AZD8055] |  | 53 |  | 18.6 |  | 21.8 |  | 10.5 |  | 5.57 |  | 14.1 |  | 14.6 |  | 22.7 | 0 | 0 | 2.99 | 0 | 0.628 | 0 | 7.39 | 14.2 | 0 | 0 | 0 | 0 | 0 | 0 | 8.37 | 0 | 0 | 2.01
CN1CCN(CCOc2cc(OC3CCOCC3)c3c(Nc4c(Cl)ccc5c4OCO5)ncnc3c2)CC1 [Saracatinib] |  | 78.7 |  | 29.1 |  | 20.3 |  | 45 |  | 65.9 |  | 120 |  | 60.9 |  | 21.9 | 0 | 0 | 1.96 | 9.13 | 6.93 | 2.22 | 6.5 | 0 | 0 | 0 | 0 | 0 | 0 | 0 | 0 | 0 | 0 | 0
C/C(=C\c1csc(C)n1)[C@@H]1C[C@@H]2O[C@]2(C)CCC[C@H](C)[C@H](O)[C@@H](C)C(=O)C(C)(C)[C@@H](O)CC(=O)O1 [Patupilone] | 57.9% |  | 26.8% |  | 41% |  | 12.7% |  | 17.6% |  | 7.32% |  | 20.4% |  | 55.1% |  | 0 | 2.68 | 8.09 | 10.2 | 14.4 | 0 | 21 | 8.8 | 7.87 | 0 | 0 | 0 | 0 | 9.94 | 0.908 | 3 | 7.9 | 25.1
CCCCCCCCc1ccc(CCC(N)(CO)CO)cc1 [Fingolimod] |  | 84 |  | 91.7 |  | 95 |  | 109 |  | 88.8 |  | 117 |  | 95.2 |  | 0.67 | 17.9 | 0.861 | 5.23 | 2.64 | 7.94 | 2.47 | 1.3 | 0 | 11.1 | 0 | 0 | 1.17 | 1.86 | 6.51 | 0 | 0.724 | 1.46 | 6.79
O=C(O)CCCc1ccc(N(CCCl)CCCl)cc1 [Chlorambucil] |  | 104 |  | 97.7 |  | 107 |  | 115 |  | 96.7 |  | 125 |  | 108 |  | 115 | 0 | 0 | 0 | 2.34 | 0 | 0 | 0 | 0 | 0 | 0 | 0 | 0 | 0 | 0 | 0 | 0 | 0 | 0
CO[C@H]1C[C@@H]2CC[C@@H](C)[C@@](O)(O2)C(=O)C(=O)N2CCCC[C@H]2C(=O)O[C@H]([C@H](C)C[C@@H]2CC[C@@H](OCCO)[C@H](OC)C2)CC(=O)[C@H](C)/C=C(\C)[C@@H](O)[C@@H](OC)C(=O)[C@H](C)C[C@H](C)/C=C/C=C/C=C/1C [Everolimus] | 50.4% and 48.4% |  | 57% and 52.9% |  | 72.9% and 72.6% |  | 40.4% and 43.4% |  | 39% and 37.2% |  | 60.9% and 62.6% |  | 28.7% and 29.6% |  | 76.8% and 59.4% |  | 0 | 0 | 0 | 0 | 0 | 0 | 0 | 0 | 0 | 0 | 0 | 8.1 | 0 | 0 | 0 | 5.95 | 0 | 0
CN(C)CCN1C(=O)c2cccc3cc(N)cc(c23)C1=O [Amonafide] |  | 85.8 |  | 61.9 |  | 79.6 |  | 55.7 |  | 32 |  | 57.9 |  | 68.3 |  | 45.5 | 0 | 0 | 0 | 11.2 | 0 | 0 | 2.42 | 2.89 | 0 | 0 | 0 | 0 | 0 | 0 | 0 | 0 | 0 | 0
